Where a name gives a salt, the structure may show the parent alone. Read-outs that look alike come from different tables or passages of the source.
How the values were obtained:
H2O2 and αSyn aggregates = H2O2 and αSyn aggregates (Homo sapiens, UniProt P37840); conditions: 100 µM H2O2 (60 min) and approx. 10 µM αSyn aggregates, dye 5 µM
[1] = Bulk fluorescence response of dyes to H2O2; conditions: for increase in bulk fluorescence upon addition of H2O2: 100 µM H2O2, dye 5 µM, PBS pH 7.4, relative to free dye; for gradient of fluorescence intensity versus time curve: dyes incubated with H2O2, recorded over 5 h at 20 min intervals
Method: Next, the change in bulk fluorescence emission was assessed upon addition of H2O2 at a concentration realistic for cellular oxidative stress (100 µM) [31]. […] As the oxidation reaction is predominantly irreversible, these sensors record the total ROS exposure to a system, rather than the equilibrium value.

αSyn aggregates [2] = target: T1, αSyn aggregates (Homo sapiens, UniProt P37840); assay: SAVE (TIRF) single-aggregate fluorescence imaging, density of detected aggregates; design: made in house; host or cells: Escherichia coli
Method: Fluorescence imaging experiments were carried out with a bespoke inverted microscope (Nikon, Eclipse, TE2000-U) set-up optimized for TIRF measurements. […] Images were recorded at 100 ms exposure for 200 frames using automation through Micro-manager software.
Images were analysed with a bespoke ImageJ [41] macro. […] Pixels of intensity above background were determined with a fixed threshold and αSyn aggregate species in each field of view identified and counted. […] Five fields of view in the presence of H2O2 and five in the absence of H2O2 were analysed for each dye. Error bars represent the standard deviations of the species density between the five fields of view.

αSyn aggregates [3] = target: T1, αSyn aggregates; assay: Limit of detection of oxidized probes by SAVE imaging; conditions: first dye concentration deviating from mean background by 3 s.d.
Method: To quantify this process, we determined the number of detectable aggregates, before and after addition of H2O2 and assumed constant surface coverage. […] The limit of detection (LOD) of oxidized BE (BE-Ox) and mBE (mBE-Ox) probes to αSyn aggregates was determined using SAVE imaging (electronic supplementary material, figure S8).
Glass cover-slides for SAVE fluorescence imaging were cleaned for 1 h using an argon plasma (PDC-002, Harrick Plasma) and the slide surface incubated with poly-L-lysine (PLK) for 30 min as previously described [13]. […] The working solution (50 µl) was added to the clean, PLK coated cover-slide and incubated for 2 min. The slide was then washed twice with PBS and imaged. H2O2 (100 µM) was then added directly to the cover-slide and the sample imaged again.

[4] = Bulk photophysical properties of free dyes in PBS; conditions: free dye; for brightness (ε × ΦFl) / maximum absorption wavelength (λabs) / maximum emission wavelength (λem) / molar extinction coefficient ε / Stokes shift (λem − λabs): PBS pH 7.4; for fluorescence quantum yield ΦFl: PBS pH 7.4, relative to a standard
Method: Several photophysical quantities were determined from ensemble absorption and emission data, using techniques previously described [38]. These included absorption maxima (λAbs), emission maxima (λEm) Stokes shift, molar extinction coefficient (ε) and fluorescence quantum yield (ΦFl).

αSyn aggregates [5] = target: T1, αSyn aggregates; assay: Bulk fluorescence response of dyes to preformed αSyn aggregates; design: made in house; host or cells: Escherichia coli; conditions: approx. 10 µM preformed αSyn aggregates, dye 5 µM, PBS pH 7.4
αSyn aggregates [6] = target: T1, αSyn aggregates; assay: Surface plasmon resonance equilibrium affinity to immobilized αSyn aggregates; assay type: binding; design: made in house; host or cells: Escherichia coli; conditions: SPR, 25°C, before incubation with H2O2
[7] = LCMS analysis of the reaction of the dyes with H2O2 in PBS; assay type: physicochemical; conditions: for dye molecules converted into the phenol: 1 hour incubation with 100 µM H2O2, PBS
Method: Next, the change in bulk fluorescence emission was assessed upon addition of H2O2 at a concentration realistic for cellular oxidative stress (100 µM). […] Furthermore, the kinetics could be followed, with all fluorescence traces increasing at varying rates in a linear regime over a 5 h period (figure 2c). As the oxidation reaction is predominantly irreversible, these sensors record the total ROS exposure to a system, rather than the equilibrium value. […] These measurements confirmed that the change in fluorescence intensity arose from the conversion of the boronic ester into the hydroxyl functionality. By contrast, no significant change in the chemical composition of the dye solutions occurred over the same time frame without addition of H2O2 (electronic supplementary material, figure S4).
LCMS analysis of the reaction of the dyes with H2O2 was performed using a Waters Acquity H-class UPLC coupled with a single quadrupole Waters SQD2. ACQUITY UPLC CSH C18 Column, 130 Å, 1.7 µm, 2.1 mm × 50 mm was used as the UPLC column. The conditions of the UPLC method are as follows:
Solvent A: Water +0.1% Formic acid; Solvent B: Acetonitrile +0.1% Formic acid; Gradient of 0-4 minutes 5% - 100%B + 1 minute 100% B with re-equilibration time of 2 minutes. Flow rate: 0.6 ml/min; Column temperature of 40 °C; Injection volume of […]. The signal was monitored at 254 nm.
Samples were prepared by diluting the stock solutions of the BE and mBE compounds (prepared as previously described) into PBS (pH 7.4) to a concentration of 30 µM. The diluted dye solutions were analysed via LCMS directly after dilution (t = 0 hour) as well as 1 hour after dilution (t = 1 hour) (Supplementary Table 1). To proof the oxidative cleavage of the boronic esters to a phenol triggered by H2O2, the diluted dye solutions were exposed to 100 µM H2O2 and analysed via LCMS after 1 hour of incubation (Supplementary Table 1).

[8] = cited from earlier work
[9] = after addition of 100 µM H2O2 (post-oxidation)
[10] = before addition of H2O2 (pre-oxidized)
[11] = 30 µM in PBS pH 7.4, 60 minutes with 100 μM H2O2, UV 254 nm
[12] = 30 µM in PBS pH 7.4, time point 0 minutes, no H2O2, UV 254 nm
[13] = 30 µM in PBS pH 7.4, time point 60 minutes, no H2O2, UV 254 nm

| SMILES | 'compounded' increase in fluorescence with H2O2 and αSyn aggregates together (H2O2 and αSyn aggregates) | density of single αSyn aggregate species detected (αSyn aggregates [2]; [9]) | density of single αSyn aggregate species detected (αSyn aggregates [2]; [10]) | brightness (ε × ΦFl) [4] | maximum absorption wavelength (λabs) [4] | maximum emission wavelength (λem) [4] | molar extinction coefficient ε [4] | fluorescence quantum yield ΦFl [4] | Stokes shift (λem − λabs) [4] | Hydrolyzed (boronic acid derivative) Rel. Area [7, 11] | Oxidized (phenol derivative) Rel. Area [7, 11] | Hydrolyzed (boronic acid derivative) Rel. Area [7, 12] | Hydrolyzed (boronic acid derivative) Rel. Area [7, 13] | dye molecules converted into the phenol [7] | increase in bulk fluorescence upon addition of H2O2 [1] | gradient of fluorescence intensity versus time curve [1] | further results |
| --- | --- | --- | --- | --- | --- | --- | --- | --- | --- | --- | --- | --- | --- | --- | --- | --- | --- |
| Cc1ccc2c(c1)sc(-c1ccc(N(C)C)cc1)[n+]2C [ThT, thioflavin t, reference compound] | no change in fluorescence | 0.026 ± 002 aggregates/µm^2 | 0.025 ± 0.004 aggregates/µm^2 | 15 M⁻¹ cm⁻¹ | 412 nm | 486 nm | 37 500 M^−1 cm^−1 | 0.00 |  |  |  |  |  |  | no change |  | limit of detection (LOD) to αSyn aggregates (αSyn aggregates [3]): 2.40 ± 0.64 µM |
| COc1ccc2c(c1)sc(-c1ccc(B3OC(C)(C)C(C)(C)O3)cc1)[n+]2C.F[B-](F)(F)F [mBE01, 6-Methoxy-3-methyl-2-(4-(4,4,5,5-tetramethyl-1,3,2-dioxaborolan-2-yl)phenyl)benzo[d]thiazol-3-ium tetrafluoroborate] | no additional change in fluorescence | 0.0051 ± 0.0004 aggregates/µm^2 | 0.0040 ± 0.0004 aggregates/µm^2 | 168 M⁻¹ cm⁻¹ | 330 nm | 417 nm | 16 800 M^−1 cm^−1 | 0.01 | 87 nm | 27% | 64% | 100% | 100% | 73% | 16.0 fold | 0.011 min⁻¹ | increase in fluorescence intensity upon addition of αSyn aggregates (αSyn aggregates [5]): 7.1 fold; Kd (αSyn aggregates [6]): 35.2 ± 5.7 µM; Oxidized, de-methylated Rel. Area [7, 11]: 9.47% |
| C=C[C@H]1C[N@@]2CC[C@H]1C[C@H]2[C@H](O)c1ccnc2ccc(OC)cc12 [quinine sulfate] |  |  |  |  |  |  |  |  |  |  |  |  |  |  |  |  | ΦFl of reference standard ([8]; in 0.1 M H2SO4): 0.5 |
| COc1ccc2c(c1)sc(-c1ccc(B3OCC(C)(C)CO3)cc1)[n+]2C.F[B-](F)(F)F [mBE02, 2-(4-(5,5-Dimethyl-1,3,2-dioxaborinan-2-yl)phenyl)-6-methoxy-3-methylbenzo[d]thiazol-3-ium tetrafluoroborate] | no additional change in fluorescence | 0.0060 ± 0.0005 aggregates/µm^2 | 0.006 ± 0.001 aggregates/µm^2 | 148 M⁻¹ cm⁻¹ | 330 nm | 417 nm | 14 800 M^−1 cm^−1 | 0.01 | 87 nm | 12% | 70% | 100% | 100% | 88% | 3.6 fold | 0.015 min⁻¹ | increase in fluorescence intensity upon addition of αSyn aggregates (αSyn aggregates [5]): 3.8 fold; Kd (αSyn aggregates [6]): 33.5 ± 3.9 µM; Oxidized, de-methylated Rel. Area [7, 11]: 18.63% |
| O=C(O)c1ccccc1C1=c2cc3c4c(c2Oc2c1cc1c5c2CCCN5CCC1)CCC[N+]=4CCC3.[Cl-] [rhodamine 101] |  |  |  |  |  |  |  |  |  |  |  |  |  |  |  |  | ΦFl of reference standard ([8]; in ethanol): 1 |

The next lines start with results.

| 'compounded' increase in fluorescence with H2O2 and αSyn aggregates together (H2O2 and αSyn aggregates) | density of single αSyn aggregate species detected (αSyn aggregates [2]; [9]) | density of single αSyn aggregate species detected (αSyn aggregates [2]; [10]) | brightness (ε × ΦFl) [4] | maximum absorption wavelength (λabs) [4] | maximum emission wavelength (λem) [4] | molar extinction coefficient ε [4] | fluorescence quantum yield ΦFl [4] | Stokes shift (λem − λabs) [4] | Hydrolyzed (boronic acid derivative) Rel. Area [7, 11] | Oxidized (phenol derivative) Rel. Area [7, 11] | Hydrolyzed (boronic acid derivative) Rel. Area [7, 12] | Hydrolyzed (boronic acid derivative) Rel. Area [7, 13] | dye molecules converted into the phenol [7] | SMILES | increase in bulk fluorescence upon addition of H2O2 [1] | gradient of fluorescence intensity versus time curve [1] | further results |
| --- | --- | --- | --- | --- | --- | --- | --- | --- | --- | --- | --- | --- | --- | --- | --- | --- | --- |
|  |  |  | 384 M⁻¹ cm⁻¹ | 330 nm | 416 nm | 6400 M⁻¹ cm⁻¹ | 0.06 | 86 nm |  | 100% | 65% | 47% | 100% | COc1ccc2nc(-c3ccc(B4OC(C)(C)C(C)(C)O4)cc3)sc2c1 [BE01, 6-methoxy-2-(4-(4,4,5,5-tetramethyl-1,3,2-dioxaborolan-2-yl)phenyl)benzo[d]thiazole] | 2.0 fold | 0.112 ± 0.002 min⁻¹ | H2O2 concentration detected ([1]; 5 µM dye, 5 h incubation with 0-100 µM H2O2): greater than 1 µM; Boronate ester Rel. Area [7, 12]: 35%; Boronate ester Rel. Area [7, 13]: 53% |
|  |  |  | 168 M⁻¹ cm⁻¹ | 330 nm | 412 nm | 4200 M⁻¹ cm⁻¹ | 0.04 | 82 nm | 10% | 90% | 100% | 100% | 90% | COc1ccc2nc(-c3ccc(B4OCC(C)(C)CO4)cc3)sc2c1 [BE02, 2-(4-(5,5-dimethyl-1,3,2-dioxaborinan-2-yl)phenyl)-6-methoxybenzo[d]thiazole] |  | 0.017 min⁻¹ |  |
